Counter-ions that a name gives are not always drawn.
Experiments:
[1] = tested on: herpes simplex 1 virus (HSV1); experiment: Plaque Assay 1 (plaque counting); assay type: cell-based; details: for plaques seen in plaque assay: concentration and dilution not stated
Description: The compounds prepared in Examples 1-4 were tested in a plaque assay using herpes simplex 1 virus (HSV1), and acyclovir (ACV) as a reference compound. […] The plaque counting results obtained when using the compounds of Examples 1 and 4, and the reference compound ACV, respectively, are shown in Tables 1-3.

HSV-1 = details: in vitro; cited from earlier work

Cc1cc2nc3c4cc(Cl)ccc4n(CC(=S)NCCN(C)C)c3nc2cc1C [Example 3, 9-chloro-N-[2-(dimethylamino)ethyl]-2,3-dimethyl-6H-Indolo[2,3-b]quinoxaline-6-thioacetamide]
plaques seen in plaque assay [1]: no plaques could be seen

Cc1cc2nc3c4cc(Cl)ccc4n(CC(=O)NCCN(C)C)c3nc2cc1C [Example 2, 9-chloro-N-[2-(dimethylamino)ethyl]-2,3-dimethyl-6H-Indolo[2,3-b]quinoxaline-6-acetamide]
plaques seen in plaque assay [1]: no plaques could be seen

Cc1cc2nc3c4ccccc4n(CC[N+](C)(C)C)c3nc2cc1C.[I-] [Example 1, 2,3-Dimethyl-6-[2-(trimethylamino)ethyl]-6H-indolo[2,3-b]quinoxaline iodide]
plaque count ([1]; compound 1 uM, 10^1 dilution): 19 | plaque count ([1]; compound 1 uM, 10^2 dilution): 3 | plaque count ([1]; compound 1 uM, 10^3 dilution): 1 | plaque count ([1]; compound 5 uM, 10^1 dilution): 8 | plaque count ([1]; compound 5 uM, 10^2 dilution): 2

Br.C=CC[N+](C)(C)CCn1c2ccccc2c2nc3cc(C)c(C)cc3nc21
melting point: 248 to 252 °C

Cc1cc2nc3c4ccccc4n(CC[N+](C)(C)C)c3nc2cc1C [Example 4, 2,3-dimethyl-6-[2-(trimethylamino)ethyl]-6H-indolo[2,3-b]quinoxaline methyl sulfate]
plaque count ([1]; compound 1 uM, 10^1 dilution): 11 | plaque count ([1]; compound 5 uM, 10^1 dilution): 2

Nc1nc2c(ncn2COCCO)c(=O)[nH]1 [ACV, acyclovir, reference compound]
plaque count ([1]; compound 1 uM, 10^1 dilution): 15 | plaque count ([1]; compound 5 uM, 10^1 dilution): 8 | plaque count ([1]; compound 5 uM, 10^2 dilution): 1 | plaque count ([1]; compound 25 uM, 10^1 dilution): 2 | selectivity ratio for the inhibitory activity against HSV-1 (HSV-1): about 2000

From patent US20160031889A1, “ANTIVIRAL INDOLO[2,3-B]QUINOXALINE” (VIRONOVA HERPES AB, priority 2013, published 2016)
